From PMC6472409, “Dishevelled-3 conformation dynamics analyzed by FRET-based biosensors reveals a key role of casein kinase 1” (Nature Communications, 2019)
Substitutions are numbered along the chain they refer to. Where a SMILES comes first, the peptide text is derived from it. [ ]: non-standard residue; d: D form. pS = N[C@@H](COP(=O)(O)O)C(=O)O

Assays:
Type in all cases: binding
[1] = target: T1, PDZ domain of human DVL2 wild type (aa 265–361) (Homo sapiens, UniProt O14641); test: NMR titration with DVL C-terminal peptide, PDZ wild type
T1 construct: The PDZ domain of human DVL2 wild type (aa 265–361); His6-tag (N, cleaved yes); lipoyl domain (N, cleaved yes); made in house; host or cells: E. coli BL21 (DE3)
T1 sequence (O14641 265-361): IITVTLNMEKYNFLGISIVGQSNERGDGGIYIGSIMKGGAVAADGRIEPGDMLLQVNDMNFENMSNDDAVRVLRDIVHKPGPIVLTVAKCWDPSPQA
Protocol: (§1) The PDZ domain of human DVL2 wild type (aa 265–361) and phosphorylation-mimicking variant S286E + S329E were cloned into pET vector containing an N-terminal His6-tag and a lipoyl domain separated by a Tobacco Etch Virus (TEV) protease digestion site from the N-terminus of the inserts. Both proteins were expressed at high yields in E. coli BL21 (DE3) strain (New England Biolabs, #C2527I). For the NMR studies, ^13C- and ^15N-labeled proteins were prepared by growing cells in minimal medium supplemented with ^15NH4Cl (1 g/l) and ^13C6 glucose (2 g/l) as the sole nitrogen and carbon sources, respectively. Cells were grown at 37 °C to an OD600 of approximately 0.8 and protein expression was induced with 0.5 mM IPTG. Cells were lysed by sonication and centrifuged at 15,000g. Three purification steps were used for both proteins: Ni-NTA chromatography followed by overnight TEV cleavage to remove the N-terminal His6-tag and the lipoyl domain, ion exchange chromatography, and size exclusion chromatography. Finally, the untagged PDZ domain wild type or phosphorylation-mimicking variant was concentrated and exchanged to buffer for NMR or binding experiments containing 20 mM HEPES (pH 6.8) and 50 mM KCl. Human CK1ε (aa 1–294) was also cloned into a pET vector and purified using three purification steps as described for the PDZ domain.
(§2) A 4D HC(CC-TOCSY(CO))NH and a 4D ^13C, ^15N edited HMQC-NOESY-HSQC experiments were recorded at CEITEC Josef Dadok National NMR Centre on a 700 MHz Bruker Avance III spectrometers equipped with ^1H/^13C/^15N TCI cryogenic probe head with z-axis gradients. 4D spectra were processed with SSA package[59] and analyzed with SPARKY. Chemical shift assignments were obtained automatically using 4D-CHAINS[60] and checked manually. NMR titrations were performed in series of ^1H, ^15N HSQC spectra using 100 μM of ^15N-labeled protein (wild type or phosphorylation-mimicking variant) and increasing amounts of C-terminal DVL peptide (pS700) consisted of aa 698–716 from DVL3 (stock concentration of 800 μM). Steady-state^15N-^1H Nuclear Overhauser Effect values were measured under a steady-state condition with a 30 s interscan relaxation delay. Reference spectra and the spectra measured under steady-state conditions were measured in an interleaved manner.

[2] = target: T2, PDZ (S286E/S329E) of human DVL2 (Homo sapiens, UniProt O14641, S286E/S329E); test: NMR titration with DVL C-terminal peptide, PDZ phosphorylation-mimicking variant
T2 construct: The PDZ domain of human DVL2 wild type (aa 265–361) and phosphorylation-mimicking variant S286E + S329E; His6-tag (N, cleaved yes); lipoyl domain (N, cleaved yes); made in house; host or cells: E. coli BL21 (DE3)
T2 sequence (O14641 265-361 S286E/S329E): T1 sequence (O14641 265-361) with S22E, S65E
Protocol: as §1, §2

PDZ wild type from DVL2 = target: T3, PDZ wild type from DVL2 (Homo sapiens, UniProt O14641); test: Surface plasmon resonance, PDZ wild type; conditions: for Response (R.U.): SPR, equilibrium
T3 construct: The PDZ domain of human DVL2 wild type (aa 265–361); His6-tag (N, cleaved yes); lipoyl domain (N, cleaved yes); made in house; host or cells: E. coli BL21 (DE3)
T3 sequence (O14641 265-361): T1 sequence (O14641 265-361)
Protocol: as §1
(§3) SPR experiments were performed on a Biacore T200 instrument (GE Healthare). The wild type and phosphorylation-mimicking variant of PDZ from DVL2 were immobilized on carboxy-methylated dextran matrix (CM5 chip S Series) using amino coupling. Non-reacted groups were blocked by 1 M ethanolamine. […] The C-terminal DVL peptide (aa 698–716 from DVL3; pS700) was injected at increasing concentrations and long enough to reach steady state. SPR responses were measured and corrected for the response of the blank. Data points were collected from each binding sensogram before the end of the injection (equilibrium) and the dissociation constants were estimated by fitting the response at equilibrium versus the C-terminal peptide concentration using the following equation: Req = C*Rmax/(KD + C), where Req is the binding level in Response Units at different C-terminal peptide concentrations (C), Rmax the response at saturation (fitted), and KD the apparent dissociation constant (fitted).

[3] = target: T4, PDZ (S286E/S329E) from DVL2 (Homo sapiens, UniProt O14641, S286E/S329E); test: Surface plasmon resonance, PDZ phosphorylation-mimicking variant; conditions: for Response (R.U.): SPR, equilibrium
T4 construct: The PDZ domain of human DVL2 wild type (aa 265–361) and phosphorylation-mimicking variant S286E + S329E; His6-tag (N, cleaved yes); lipoyl domain (N, cleaved yes); made in house; host or cells: E. coli BL21 (DE3)
T4 sequence (O14641 265-361 S286E/S329E): T1 sequence (O14641 265-361) with S22E, S65E
Protocol: as §1, §3

[4] = Biacore T200, PDZ immobilized on CM5 chip, steady-state fit, read-out: apparent KD (SPR, one-site binding model)

With `CSCC[C@H](NC(=O)[C@@H](NC(=O)[C@H](CC(=O)O)NC(=O)[C@@H](NC(=O)[C@H](Cc1ccccc1)NC(=O)[C@H](Cc1ccccc1)NC(=O)[C@H](CCC(=O)O)NC(=O)[C@H](CO)NC(=O)[C@@H]1CCCN1C(=O)[C@H](CC(N)=O)NC(=O)CNC(=O)[C@H](CCSC)NC(=O)[C@H](C)NC(=O)[C@H](CCSC)NC(=O)[C@H](CCCNC(=N)N)NC(=O)[C@H](Cc1ccccc1)NC(=O)[C@H](COP(=O)(O)O)NC(=O)[C@H](CCC(N)=O)NC(=O)[C@@H](N)CCCNC(=N)N)C(C)C)C(C)C)C(=O)O` [DVL C-terminal peptide] (H-RQ[pS]FRMAMGNPSEFFVDVM-OH) the “Δδ (p.p.m.) F277” value ([1]; pFRMA 50 uM) was 0.028 p.p.m, the “Δδ (p.p.m.) H342” value ([1]; pFRMA 50 uM) was 0.043 p.p.m and the “Δδ (p.p.m.) K301” value ([1]; pFRMA 50 uM) was 0.035 p.p.m. The “Δδ (p.p.m.) F277” value ([1]; pFRMA 100 uM) was 0.046 p.p.m, the “Δδ (p.p.m.) H342” value ([1]; pFRMA 100 uM) was 0.07 p.p.m and the “Δδ (p.p.m.) K301” value ([1]; pFRMA 100 uM) was 0.06 p.p.m. The “Δδ (p.p.m.) F277” value ([1]; pFRMA 200 uM) was 0.066 p.p.m, the “Δδ (p.p.m.) H342” value ([1]; pFRMA 200 uM) was 0.109 p.p.m and the “Δδ (p.p.m.) K301” value ([1]; pFRMA 200 uM) was 0.092 p.p.m. The “Δδ (p.p.m.) F277” value ([1]; pFRMA 400 uM) was 0.112 p.p.m, the “Δδ (p.p.m.) H342” value ([1]; pFRMA 400 uM) was 0.174 p.p.m and the “Δδ (p.p.m.) K301” value ([1]; pFRMA 400 uM) was 0.148 p.p.m. The “affinity of phosphorylation-mimicking variant compared with PDZ wt (NMR)” value ([2]; fast exchange peaks, quantitative analysis) was “two-fold weaker affinity”, the “Δδ (p.p.m.) F277” value ([2]; pFRMA 50 uM) was 0.02 p.p.m and the “Δδ (p.p.m.) H342” value ([2]; pFRMA 50 uM) was 0.032 p.p.m. For the same compound, the “Δδ (p.p.m.) K301” value ([2]; pFRMA 50 uM) was 0.026 p.p.m, the “Δδ (p.p.m.) F277” value ([2]; pFRMA 100 uM) was 0.03 p.p.m and the “Δδ (p.p.m.) H342” value ([2]; pFRMA 100 uM) was 0.056 p.p.m. For the same compound, the “Δδ (p.p.m.) K301” value ([2]; pFRMA 100 uM) was 0.044 p.p.m, the “Δδ (p.p.m.) F277” value ([2]; pFRMA 200 uM) was 0.048 p.p.m and the “Δδ (p.p.m.) H342” value ([2]; pFRMA 200 uM) was 0.093 p.p.m. The “Δδ (p.p.m.) K301” value ([2]; pFRMA 200 uM) was 0.071 p.p.m, the “Δδ (p.p.m.) F277” value ([2]; pFRMA 400 uM) was 0.084 p.p.m and the “Δδ (p.p.m.) H342” value ([2]; pFRMA 400 uM) was 0.164 p.p.m. The “Δδ (p.p.m.) K301” value ([2]; pFRMA 400 uM) was 0.128 p.p.m, the Kd (PDZ wild type from DVL2; [4]) was 305 µM and the “Response (R.U.)” value (PDZ wild type from DVL2; pFRMA 3.125 uM) was 3.399 R.U. The “Response (R.U.)” value (PDZ wild type from DVL2; pFRMA 6.25 uM) was 3.725 R.U, the “Response (R.U.)” value (PDZ wild type from DVL2; pFRMA 12.5 uM) was 4.287 R.U and the “Response (R.U.)” value (PDZ wild type from DVL2; pFRMA 25 uM) was 4.98 R.U. For the same compound, the “Response (R.U.)” value (PDZ wild type from DVL2; pFRMA 50 uM) was 6.694 R.U, the “Response (R.U.)” value (PDZ wild type from DVL2; pFRMA 100 uM) was 9.137 R.U and the “Response (R.U.)” value (PDZ wild type from DVL2; pFRMA 200 uM) was 14.3144 R.U. The “Response (R.U.)” value (PDZ wild type from DVL2; pFRMA 400 uM) was 24.5768 R.U, the Kd [3, 4] was 754 µM and the “Response (R.U.)” value ([3]; pFRMA 3.125 uM) was 1.637 R.U. The “Response (R.U.)” value ([3]; pFRMA 6.25 uM) was 1.9305 R.U, the “Response (R.U.)” value ([3]; pFRMA 12.5 uM) was 2.181 R.U and the “Response (R.U.)” value ([3]; pFRMA 25 uM) was 2.621 R.U. The “Response (R.U.)” value ([3]; pFRMA 50 uM) was 3.732 R.U, the “Response (R.U.)” value ([3]; pFRMA 100 uM) was 5.135 R.U and the “Response (R.U.)” value ([3]; pFRMA 200 uM) was 8.677 R.U. The “Response (R.U.)” value ([3]; pFRMA 400 uM) was 16.554 R.U and the “peptide affinity of phosphorylation-mimicking variant compared with PDZ wt (SPR)” value ([3]; apparent dissociation constants from SPR) was “two-fold lower peptide affinity”.
